Results: ChEMBL document CHEMBL1201862, “PubChem BioAssay data set” (2004)
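How tested: cells in 96-well plates exposed to compound for 48 hours at five concentrations. At the GI50, growth is halved.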 Active and inactive are the calls of the source. No stated cut-off is given here; in the data, active = GI50 up to about 1.1 µM and inactive = higher.

How the values were obtained:
Experiment in all cases: inhibition of tumour cell growth, NCI panel, 48 h
[1] = test system: 786-0
[2] = test system: A498
[3] = test system: A549
[4] = test system: ACHN
[5] = test system: BT-549
[6] = test system: CAKI-1
[7] = test system: CCRF-CEM
[8] = test system: COLO 205
[9] = test system: DU-145
[10] = test system: EKVX
[11] = test system: HCC 2998
[12] = test system: HCT-116
[13] = test system: HCT-15
[14] = test system: HOP-92
[15] = test system: HT-29
[16] = test system: IGROV-1
[17] = test system: K562
[18] = test system: KM12
[19] = test system: LOX IMVI
[20] = test system: M14
[21] = test system: MCF7
[22] = test system: MDA-MB-231
[23] = test system: MDA-MB-435
[24] = test system: MDA-N
[25] = test system: MOLT-4
[26] = test system: NCI-H226
[27] = test system: NCI-H23
[28] = test system: NCI-H460
[29] = test system: NCI/ADR-RES
[30] = test system: OVCAR-3
[31] = test system: OVCAR-4
[32] = test system: OVCAR-5
[33] = test system: OVCAR-8
[34] = test system: PC-3
[35] = test system: RPMI-8226
[36] = test system: RXF 393
[37] = test system: SF-295
[38] = test system: SF-539
[39] = test system: SK-MEL-28
[40] = test system: SK-MEL-2
[41] = test system: SK-MEL-5
[42] = test system: SK-OV-3
[43] = test system: SN12C
[44] = test system: SNB-19
[45] = test system: SNB-75
[46] = test system: SR
[47] = test system: SW-620
[48] = test system: T47D
[49] = test system: TK-10
[50] = test system: U-251
[51] = test system: UACC-257
[52] = test system: UACC-62
[53] = test system: UO-31
[54] = test system: HL-60
[55] = test system: HOP-62
[56] = test system: Hs-578T
[57] = test system: Malme-3M
[58] = test system: NCI-H522
[59] = test system: SF-268

In the case of `COC(=O)C1=C(O)CCCC(C2CCCCC(=O)C2C(=O)OC)=C1` (stereo unspecified), the GI50 [1] is reported as 37.8 µM (inactive), the GI50 [2] is reported as 18.4 µM (inactive) and the GI50 [3] is reported as 44.3 µM (inactive). The GI50 [4] was 37.2 µM (inactive), the GI50 [5] was 78.9 µM (inactive) and the GI50 [6] was 31.1 µM (inactive). For the same compound, the GI50 [7] was 20.8 µM (inactive), the GI50 [8] was 83.4 µM (inactive) and the GI50 [9] was 29.9 µM (inactive). The GI50 [10] was 67.3 µM (inactive), the GI50 [11] was 33.5 µM (inactive) and the GI50 [12] was 36.1 µM (inactive). For the same compound, the GI50 [13] was 87.5 µM, the GI50 [14] was 28.5 µM (inactive) and the GI50 [15] was > 100 µM (inactive). For the same compound, the GI50 [16] was 36.8 µM (inactive), the GI50 [17] was 64.3 µM (inactive) and the GI50 [18] was 94.6 µM (inactive). The GI50 [19] was 25.6 µM (inactive), the GI50 [20] was > 100 µM (inactive) and the GI50 [21] was 22.6 µM (inactive). For the same compound, the GI50 [22] was 46.5 µM (inactive), the GI50 [23] was > 100 µM (inactive) and the GI50 [24] was > 100 µM (inactive). The GI50 [25] was 31.3 µM (inactive), the GI50 [26] was 27.9 µM (inactive) and the GI50 [27] was 70.3 µM (inactive). The GI50 [28] was 13.9 µM (inactive), the GI50 [29] was > 100 µM (inactive) and the GI50 [30] was > 100 µM (inactive). The GI50 [31] was > 100 µM (inactive), the GI50 [32] was > 100 µM (inactive) and the GI50 [33] was 45.5 µM (inactive). The GI50 [34] was 63.4 µM (inactive), the GI50 [35] was 56.1 µM (inactive) and the GI50 [36] was 90.2 µM (inactive). The GI50 [37] was 48 µM (inactive), the GI50 [38] was 24.5 µM (inactive) and the GI50 [39] was > 100 µM (inactive). The GI50 [40] was > 100 µM (inactive), the GI50 [41] was 62.4 µM (inactive) and the GI50 [42] was 76.7 µM (inactive). The GI50 [43] was 38.2 µM (inactive), the GI50 [44] was 42.1 µM (inactive) and the GI50 [45] was 28.7 µM (inactive). The GI50 [46] was 24.7 µM (inactive), the GI50 [47] was 81.8 µM (inactive) and the GI50 [48] was 39.4 µM (inactive). The GI50 [49] was > 100 µM (inactive), the GI50 [50] was 29 µM (inactive) and the GI50 [51] was 52.1 µM (inactive). For the same compound, the GI50 [52] was 19.4 µM (inactive) and the GI50 [53] was > 100 µM (inactive).

For `COC(=O)N/N=C(\C)C(CN1CCOCC1)C(c1ccccc1)c1cc2ccccc2oc1=O` (stereo unspecified), the GI50 [1] was > 100 µM (inactive), the GI50 [2] was > 100 µM (inactive) and the GI50 [3] was > 100 µM (inactive). The GI50 [4] was > 100 µM (inactive), the GI50 [5] was 68.7 µM (inactive) and the GI50 [6] was > 100 µM (inactive). For the same compound, the GI50 [7] was 44.6 µM (inactive), the GI50 [8] was 52.6 µM (inactive) and the GI50 [9] was > 100 µM (inactive). For the same compound, the GI50 [10] was > 100 µM (inactive), the GI50 [11] was > 100 µM (inactive) and the GI50 [12] was > 100 µM (inactive). The GI50 [13] was over 100 µM, the GI50 [54] was 36.3 µM (inactive) and the GI50 [55] was > 100 µM (inactive). The GI50 [14] was 30.5 µM (inactive), the GI50 [15] was > 100 µM (inactive) and the GI50 [56] was > 100 µM (inactive). The GI50 [16] was > 100 µM (inactive), the GI50 [17] was 70.5 µM (inactive) and the GI50 [18] was > 100 µM (inactive). For the same compound, the GI50 [19] was > 100 µM (inactive), the GI50 [20] was > 100 µM (inactive) and the GI50 [21] was > 100 µM (inactive). The GI50 [22] was > 100 µM (inactive), the GI50 [23] was > 100 µM (inactive) and the GI50 [25] was 44.2 µM (inactive). The GI50 [57] was 62.5 µM (inactive), the GI50 [26] was > 100 µM (inactive) and the GI50 [27] was > 100 µM (inactive). The GI50 [28] was > 100 µM (inactive), the GI50 [58] was > 100 µM (inactive) and the GI50 [29] was 55.8 µM (inactive). For the same compound, the GI50 [30] was > 100 µM (inactive), the GI50 [31] was 74.3 µM (inactive) and the GI50 [32] was > 100 µM (inactive). For the same compound, the GI50 [33] was > 100 µM (inactive), the GI50 [34] was > 100 µM (inactive) and the GI50 [35] was 25 µM (inactive). For the same compound, the GI50 [36] was 72.1 µM (inactive), the GI50 [59] was > 100 µM (inactive) and the GI50 [37] was > 100 µM (inactive). For the same compound, the GI50 [38] was > 100 µM (inactive), the GI50 [39] was > 100 µM (inactive) and the GI50 [40] was > 100 µM (inactive). For the same compound, the GI50 [41] was > 100 µM (inactive), the GI50 [42] was > 100 µM (inactive) and the GI50 [43] was > 100 µM (inactive). The GI50 [44] was > 100 µM (inactive), the GI50 [45] was > 100 µM (inactive) and the GI50 [46] was 23.9 µM (inactive). For the same compound, the GI50 [47] was > 100 µM (inactive), the GI50 [48] was > 100 µM (inactive) and the GI50 [49] was > 100 µM (inactive). For the same compound, the GI50 [50] was > 100 µM (inactive), the GI50 [51] was 82.4 µM (inactive) and the GI50 [52] was > 100 µM (inactive). The GI50 [53] was > 100 µM (inactive).
